biological target: Recombinant human JAK1 catalytic domain (Homo sapiens (Human), UniProt P23458); experiment: JAK1 inhibition assay; type: biochemical; details: semi-quantitative score
Description: Plates were washed 6 times with 300 μL per well of a 75 mM phosphoric acid solution and the bottom of the plates was sealed. 40 μL/well of Microscint-20 was added, the top of the plates was sealed and readout was performed using the Topcount (Perkin Elmer). Kinase activity was calculated by subtracting counts per minute (cpm) obtained in the presence of a positive control inhibitor (10 μM staurosporine) from cpm obtained in the presence of vehicle. The ability of a test compound to inhibit this activity was determined as: Percentage inhibition=((cpm determined for sample with test compound present−cpm determined for sample with positive control inhibitor) divided by (cpm determined in the presence of vehicle−cpm determined for sample with positive control inhibitor))*100%.
Dose dilution series were prepared for the compounds enabling the testing of dose-response effects in the JAK1 assay and the calculation of the IC50 for each compound.

Sequence of Recombinant human JAK1 catalytic domain (P23458 850-1154): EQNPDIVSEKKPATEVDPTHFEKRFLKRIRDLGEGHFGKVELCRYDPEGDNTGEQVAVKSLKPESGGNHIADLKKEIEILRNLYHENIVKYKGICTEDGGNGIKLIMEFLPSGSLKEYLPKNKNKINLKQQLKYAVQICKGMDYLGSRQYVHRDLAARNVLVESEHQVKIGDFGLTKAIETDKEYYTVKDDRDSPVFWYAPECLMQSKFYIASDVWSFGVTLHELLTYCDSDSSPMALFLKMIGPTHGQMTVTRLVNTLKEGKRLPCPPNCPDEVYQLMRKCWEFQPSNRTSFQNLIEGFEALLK

SMILES	IC50 [nM]
CC(=O)N1CCN(Cc2ccc(-c3cccc4nc(NC(=O)C5CC5)nn34)cc2)CC1 [Compound 141, N-(5-(4-((4-acetoylpiperazin-1-yl)methyl)phenyl)-[1,2,4]triazolo[1,5-a]pyridin-2-yl)cyclopropanecarboxamide]	101 to 500
O=C(Nc1nc2cccc(-c3ccc(OCc4ccc(N5CCOCC5)nc4)cc3)n2n1)C1CC1 [Compound 165]	101 to 500
O=C(Nc1ccc(-c2cccc3nc(NC(=O)C4CC4)nn23)cc1)c1ccccn1 [Compound 55, N-(4-(2-(cyclopropanecarboxamido)-[1,2,4]triazolo[1,5-a]pyridin-5-yl)phenyl)picolinamide]	101 to 500
O=C(NCCN1CCCC1)c1ccc(-c2cccc3nc(NC(=O)C4CC4)nn23)cc1 [Compound 80, 4-(2-(cyclopropanecarboxamido)-[1,2,4]lriazoIo[1,5-a]pyridin-5-yl)-N-(2-(pyrrolidin-l-yl)ethyl)benzamide]	101 to 500
O=C(Nc1ccc(-c2cccc3nc(NC(=O)C4CC4)nn23)cn1)c1ccccc1 [Compound 44, N-(5-(2-(cyclopropanecarboxamido)-[1,2,4]triazolo[1,5-a]pyridin-5-yl)pyridin-2-yl)benzamide]	501 to 1000
O=C(Nc1nc2cccc(-c3cn(Cc4ccccn4)nn3)n2n1)C1CC1 [Compound 193]	> 1000
CN1CCN(c2ccc(-c3cccc4nc(NC(=O)C5CC5)nn34)cn2)CC1 [Compound 5, N-(5-(6-(4-methylpiperazin-1-yl)pyridin-3-yl)-[1,2,4]triazolo[1,5-a]pyridin-2-yl)cyclopropanecarboxamide]	> 1000
O=C(Nc1nc2cccc(-c3ccnc(N4CCC(CCN5CCOCC5)CC4)c3)n2n1)C1CC1 [Compound 95, N-(5-(2-(4-(2-morpholinoethyl)piperidin-1-yl)pyridin-4-yl)-[1,2,4]triazolo[1,5-a]pyridin-2-yl)cyclopropanecarboxamide]	> 1000
CN(Cc1ccc(-c2ccccn2)cc1)Cc1ccc(-c2cccc3nc(NC(=O)C4CC4)nn23)cc1 [Compound 159, N-(5-(4-((methyl(4-(pyridin-2-yl)benzyl)amino)methyl)phenyl)-[1,2,4]triazolo[1,5-a]pyridin-2-yl)cyclopropanecarboxamide]	101 to 500
COc1cccc(C(=O)Nc2ccc(-c3cccc4nc(NC(=O)C5CC5)nn34)cc2)c1 [Compound 53, N-(4-(2-(cyclopropanecarboxamido)-[1,2,4]triazolo[1,5-a]pyridin-5-yl)phenyl)-3-methoxybenzamide]	101 to 500
Cc1ccccc1OCC1CCN(C(=O)c2ccc(-c3cccc4nc(NC(=O)C5CC5)nn34)cc2)CC1 [Compound 133]	101 to 500
CCOCC1CCN(C(=O)c2ccc(-c3cccc4nc(NC(=O)C5CC5)nn34)cc2)CC1 [Compound 73]	101 to 500
O=C(Nc1nc2cccc(-c3ccc(NCCC4CCOCC4)nc3)n2n1)C1CC1 [Compound 93, N-(5-(6-(2-(tetrahydro-2H-pyran-4-yl)ethylamino)pyridin-3-yl)-[1,2,4]triazolo[1,5-a]pyridin-2-yl)cyclopropanecarboxamide]	101 to 500
O=C(Nc1nc2cccc(-c3cnc(N4CCOCC4)nc3)n2n1)C1CC1 [Compound 8, N-(5-(2-morpholinopyrimidin-5-yl)-[1,2,4]triazolo[1,5-a]pyridin-2-yl)cyclopropanecarboxamide]	> 1000
O=C(Nc1nc2cccc(-c3ccc(OCC(=O)N4CCCCC4)cc3)n2n1)C1CC1 [Compound 117, N-(5-(4-(2-oxo-2-(piperidin-1-yl)ethoxy)phenyl)-[1,2,4]triazolo[1,5-a]pyridin-2-yl)cyclopropanecarboxamide]	> 1000
Cc1cc(CN(C)Cc2ccc(-c3cccc4nc(NC(=O)C5CC5)nn34)cc2)nn1C [Compound 160, N-(5-(4-((((1,5-dimethyl-1H-pyrazol-3-yl)methyl)(methyl)amino)methyl)phenyl)-[1,2,4]triazolo[1,5-a]pyridin-2-yl)cyclopropanecarboxamide]	101 to 500
O=C(Nc1nc2cccc(-c3ccc(CN4CCCCC4)cc3)n2n1)C1CC1 [Compound 139, N-(5-(4-(pipcridin-1-ylmethyl)phenyl)-[1,2,4]triazolo[1,5-a]pyridin-2-yl)cyclopropanecarboxamide]	501 to 1000
O=C(Nc1nc2cccc(-c3ccc(-c4ccccc4)nc3)n2n1)C1CC1 [Compound 47, N-(5-(6-phenylpyridin-3-yl)-[1,2,4]triazolo[1,5-a]pyridin-2-yl)cyclopropanecarboxamide]	101 to 500
O=C(Nc1nc2cccc(-c3ccc(C(=O)N4CCC(CCN5CCOCC5)CC4)cc3)n2n1)C1CC1 [Compound 94, N-(5-(4-(4-(2-morpholinoethyl)piperidine-1-carbonyl)phenyl)-[l,2,4]triazolo[1,5-a]pyridin-2-yl)cyclopropanecarboxamide]	101 to 500

SMILES	IC50 [nM]
O=C(Nc1nc2cccc(-c3ccc(C(=O)N4CCC(c5noc6cc(F)ccc56)CC4)cc3)n2n1)C1CC1 [Compound 149, N-(5-(4-(4-(6-fluorobenzo[d]isoxazol-3-yl)piperidine-1-carbonyl)phenyl)-[1,2,4]triazolo[1,5-a]pyridin-2-yl)cyclopropanecarboxamide]	101 to 500
COc1ccc(CCN(C)C(=O)c2ccc(-c3cccc4nc(NC(=O)C5CC5)nn34)cc2)cc1OC [Compound 105, 4-(2-(cyclopropanecarboxamido)-[1,2,4]triazolo[1,5-a]pyridin-5-yl)-N-(3,4-dimethoxyphenethyl)-N-methylbenzamide]	101 to 500
O=C(Nc1nc2cccc(-c3ccc(OCc4cccc(OC(F)(F)F)c4)cc3)n2n1)C1CC1 [Compound 38, N-(5-(4-(3-(trifluoromethoxy)benzyloxy)phenyl)-[1,2,4]triazolo[1,5-a]pyridin-2-yl)cyclopropanecarboxamide]	101 to 500
O=C(Nc1nc2cccc(-c3cn(Cc4ccccc4)nn3)n2n1)C1CC1 [Compound 187, N-(5-(1-benzyl-1H-1,2,3-triazol-4-yl)-[1,2,4]triazolo[1,5-a]pyridin-2-yl)cyclopropanecarboxamide]	501 to 1000
O=C(Nc1nc2cccc(-c3ccc(C(=O)N4CCC(n5nnc6ccccc65)CC4)cc3)n2n1)C1CC1 [Compound 152, N-(5-(4-(4-(1H-benzo[d][1,2,3]triazol-1-yl)piperidine-1-carbonyl)phenyl)-[1,2,4]triazolo[1,5-a]pyridin-2-yl)cyclopropanecarboxamide]	101 to 500
O=C(Nc1nc2cccc(-c3ccc(N4CCOCC4)nc3)n2n1)C1CC1 [Compound 6, N-(5-(6-morpholinopyridin-3-yl)-[1,2,4]triazolo[1,5-a]pyridin-2-yl)cyclopropanecarboxamide]	> 1000
O=C(Nc1nc2cccc(-c3cnc(N4CCCC4)nc3)n2n1)C1CC1 [Compound 4, N-(5-(2-(pyrrolidin-1-yl)pyrimidin-5-yl)-[1,2,4]triazolo[1,5-a]pyridin-2-yl)cyclopropanecarboxamide]	501 to 1000
O=C(NCCCN1CCOCC1)c1ccc(-c2cccc3nc(NC(=O)C4CC4)nn23)cc1 [Compound 81, 4-(2-(cyclopropanecarboxamido)-[1,2,4]triazolo[1,5-a]pyridin-5-yl)-N-(3-morpholinopropyl)benzamide]	101 to 500
O=C(Nc1nc2cccc(-c3ccc(NS(=O)(=O)Cc4ccccc4)nc3)n2n1)C1CC1 [Compound 184, N-(5-(6-(phenylmethylsulfonamido)pyridin-3-yl)-[1,2,4]triazolo[1,5-a]pyridin-2-yl)cyclopropanecarboxamide]	> 1000
O=C(Nc1ccc(-c2cccc3nc(NC(=O)C4CC4)nn23)cc1)c1ccccc1F [Compound 34, N-(4-(2-(cyclopropanecarboxamido)-[1,2,4]triazolo[1,5-a]pyridin-5-yl)phenyl)-2-fluorobenzamide]	101 to 500
O=C(Nc1nc2cccc(-c3ccc(NCc4cccnc4)nc3)n2n1)C1CC1 [Compound 170, N-(5-(6-(pyridin-3-ylmethylamino)pyridin-3-yl)-[1,2,4]triazolo[1,5-a]pyridin-2-yl)cyclopropanecarboxamide]	501 to 1000
Cc1nc(COc2ccc(-c3cccc4nc(NC(=O)C5CC5)nn34)cc2)c(C)o1 [Compound 63, N-(5-(4-((2,5-dimethyloxazol-4-yl)methoxy)phenyl)-[1,2,4]triazolo[1,5-a]pyridin-2-yl)cyclopropanecarboxamide]	101 to 500
O=C(Nc1nc2cccc(-c3ccc(C(=O)N4CCC(c5nc6ccccc6[nH]5)CC4)cc3)n2n1)C1CC1 [Compound 128, N-(5-(4-(4-(1H-benzo[d]imidazol-2-yl)piperidine-1-carbonyl)phenyl)-[1,2,4]triazolo[1,5-a]pyridin-2-yl)cyclopropanecarboxamide]	501 to 1000
NC(=O)C1CCN(Cc2ccc(-c3cccc4nc(NC(=O)C5CC5)nn34)cc2)CC1 [Compound 140]	101 to 500
O=C(Nc1nc2cccc(-c3cn(Cc4ccc(C(F)(F)F)nc4)nn3)n2n1)C1CC1 [Compound 188]	> 1000
O=C(Nc1nc2cccc(-c3ccc(-c4cn[nH]c4)cc3)n2n1)C1CC1 [Compound 67, N-(5-(4-(1H-pyrazol-4-yl)phenyl)-[1,2,4]triazolo[1,5-a]pyridin-2-yl)cyclopropanecarboxamide]	101 to 500
O=C(Nc1nc2cccc(-c3ccc(CN4CCN(c5ccccn5)CC4)cc3)n2n1)C1CC1 [Compound 142, N-(5-(4-((4-(pyridin-2-yl)piperazin-1-yl)methyl)phenyl)-[1,2,4]triazolo[1,5-a]pyridin-2-yl)cyclopropanecarboxamide]	101 to 500
O=C(Nc1ccc(-c2cccc3nc(NC(=O)C4CC4)nn23)cc1)c1cnccn1 [Compound 35, N-(4-(2-(cyclopropanecarboxamido)-[1,2,4]triazolo[1,5-a]pyridin-5-yl)phenyl)pyrazine-2-carboxamide]	101 to 500

Reference: patent US10206907B2, “Compounds useful for the treatment of degenerative and inflammatory diseases” (GALAPAGOS NV, priority 2008, dated 2019)
